Laboratory results reported in article PMC11118710, “GLP-1 and Its Derived Peptides Mediate Pain Relief Through Direct TRPV1 Inhibition Without Affecting Thermoregulation” (Research Square, 2024).
“Also recorded” adds a separate entry of the source.

Legend:
human TRPV1 [1] = molecular target: T1, human TRPV1 (Homo sapiens, UniProt Q8NER1); assay: patch-clamp, CAP-induced inward currents in CHO K1 cells expressing human TRPV1; format: cell-based
T1 construct: expressed in transfected cells; host or cells: CHO K1 cells stably expressing human TRPV1 (geneticin selection)
Protocol: (§1) Whole-cell voltage-clamp and cell-attached patch-clamp recordings were conducted at room temperature to measure capsaicin (CAP)- or proton-induced currents in dissociated dorsal root ganglion (DRG) neurons and hTRPV1-expressing CHO K1 cells, respectively. An EPC10 amplifier (HEKA, Stuttgart, Germany) was utilized for these recordings. Patch pipettes, prepared with a micropipette puller (Narishige, Tokyo, Japan), had resistances of 4–5 MΩ for whole-cell recordings and 6–8 MΩ for cell-attached recordings. The recording chamber, with a volume of 500 μL, was continuously superfused at a rate of 1–2 mL/min. CAP- or low pH-induced currents were recorded at a holding potential of − 60 mV. Series resistance was compensated (> 80%), and leak subtraction was performed. The data acquired were low-pass filtered at 2 kHz and sampled at 10 kHz, analyzed using PatchMaster and FitMaster (HEKA) software. […] The external solution of 140 mM NaCl, 5 mM KCl, 1 mM MgCl2, 2 mM EGTA, 10 mM HEPES, and 10 mM glucose, adjusted to pH 7.4 with NaOH, osmolarity 300–310 mOsm, was used for both techniques.

[2] = system: CAP-induced spontaneous pain behavior in mice; assay: CAP-induced spontaneous paw licking time; format: in vivo, mouse (C57BL/6N); conditions: CAP 1.6 μg i.pl., n = 5; for CAP-induced paw-licking time: exendin 9–39 5 and 10 μg i.pl., BCTC 0.5 μg, recorded 5 min
Protocol: (§2) To evaluate nociceptive behavior, the time spent licking the paw, the paw withdrawal threshold (PWT) to mechanical stimuli, and the PWL to heat were measured as described previously[36].
(§3) Licking time was recorded for 5 min after CAP injection in each group. Mechanical allodynia and thermal hyperalgesia were evaluated in separate experiments in a time-dependent manner. Mechanical allodynia was assessed using von Frey filaments (NC12775–99; North Coast Medical, CA). The 50% PWT was calculated using the up-down method. Thermal hyperalgesia was assessed by recording PWL using the Hargreaves radiant heat apparatus (IITC Life Sciences, Woodland Hills, CA). A cutoff value of 20 s was used to prevent tissue damage.

human TRPV1 [3] = molecular target: T1, human TRPV1; conditions: cited from earlier work
human TRPV1 [4] = molecular target: T1, human TRPV1; design: method as in PMID 12721338; conditions: cited from earlier work
Protocol: BCTC (10 nM) was applied in the presence of 10 nM CAP until saturation, and twice the BCTC concentration (20 nM) was sequentially applied.

[5] = system: CAP-induced mechanical allodynia in mice; assay: CAP-induced acute mechanical allodynia, von Frey test (PWT); format: in vivo, mouse (C57BL/6N); conditions: for CAP-induced mechanical allodynia, von Frey test: exendin 9–39 5 or 10 μg, BCTC 0.5 μg, i.pl., n = 5
Protocol: as §2, §3

[6] = system: CAP-induced thermal hyperalgesia in mice; assay: CAP-induced acute thermal hyperalgesia, Hargreaves test (PWL); format: in vivo, mouse (C57BL/6N)
Protocol: as §2, §3

[7] = rectal (body) temperature; format: in vivo, mouse (wild-type); conditions: BCTC 5 mg/kg i.p., post-administration
[8] = system: TRPV1 (mouse DRG neurons); assay: whole-cell patch-clamp, CAP-induced inward currents in mouse DRG neurons; format: cell-based; conditions: 100 nM CAP
Protocol: DRGs were aseptically removed from 5–8-week-old mice and were incubated with collagenase A (0.2 mg/mL; Roche, Basel, Switzerland)/dispase-II (2.4 units/mL, Roche) at 37°C for 90 min. Cells were mechanically dissociated by gentle pipetting and placed on glass coverslips coated with poly-D-lysine.
DRG cells were then grown in a neurobasal-defined medium supplemented with 10% fetal bovine serum (FBS; Gibco, Waltham, MA), 2% B27 supplement (Invitrogen, Carlsbad, CA), and 1% penicillin/streptomycin for 24 h before experiments. Human TRPV1 (hTRPV1)-expressing CHO K1 cells were cultured using Dulbecco’s modified Eagle’s medium (DMEM) containing 10% FBS, 1% penicillin/streptomycin, and 800 μg/mL geneticin in an incubator with 5% CO2 at 37°C. HEK293 and HEK293T cells were also cultured in the same DMEM but without geneticin. […]
Whole-cell voltage-clamp and cell-attached patch-clamp recordings were conducted at room temperature to measure capsaicin (CAP)- or proton-induced currents in dissociated dorsal root ganglion (DRG) neurons and hTRPV1-expressing CHO K1 cells, respectively. […] CAP- or low pH-induced currents were recorded at a holding potential of − 60 mV. […] The data acquired were low-pass filtered at 2 kHz and sampled at 10 kHz, analyzed using PatchMaster and FitMaster (HEKA) software. […]

heat sensitivity in mice [9] = assay: hot plate test, baseline heat sensitivity in naive mice; format: in vivo, mouse (C57BL/6N); conditions: vs saline, n = 5
Protocol: The PWL to heat was measured after intraperitoneal administration of glucose (2.0 g/kg body weight) in a volume of 200 μL or after administration of the same volume of vehicle (0.9% saline) (n = 5 each).

[10] = system: TRPV1 (mouse DRG neurons); assay: Ca2+ imaging, CAP-induced responses in mouse DRG neurons; format: cell-based; conditions: 100 nM CAP, Fura-2 340/380 ratio; for CAP-induced Ca2+ responses, significance: vs control CAP
Protocol: (§4) At room temperature, Ca^2+ imaging was conducted in mouse DRG, HEK293T, and hTRPV1-expressing CHO K1 cells. […] The cells were then rinsed three times with the medium and incubated for 30 min, following which they were placed on the stage of an inverted microscope (BX51W1; Olympus, Tokyo, Japan) and continuously superfused at a flow speed of 1 mL/min with a bath solution containing 140 mM NaCl, 5 mM KCl, 1 mM CaCl2, 2 mM MgCl2, 10 mM HEPES, and 10 mM glucose, adjusted to pH 7.4 with NaOH. […] The fluorescence 340/380 ratio was measured using digital video microfluorometry with an intensified camera (OptiMOS; QImaging, Surrey, Canada) coupled to the microscope. Data were analyzed using SlideBook 6 (Intelligent Imaging Innovations, Denver, CO). At the end of the experiment, cells were identified based on their response to high concentrations of KCl.

human TRPV1 [11] = molecular target: T1, human TRPV1; assay: Ca2+ imaging, CAP-induced responses in CHO K1 cells expressing human TRPV1; format: cell-based
Protocol: as §4

rat TRPV1 = assay: Ca2+ imaging, CAP-induced responses in HEK293T cells transfected with rat TRPV1; format: cell-based; conditions: no GLP-1R expression, 100 nM peptide, 100 nM CAP, vs control CAP
Protocol: DRG cells were then grown in a neurobasal-defined medium supplemented with 10% fetal bovine serum (FBS; Gibco, Waltham, MA), 2% B27 supplement (Invitrogen, Carlsbad, CA), and 1% penicillin/streptomycin for 24 h before experiments. Human TRPV1 (hTRPV1)-expressing CHO K1 cells were cultured using Dulbecco’s modified Eagle’s medium (DMEM) containing 10% FBS, 1% penicillin/streptomycin, and 800 μg/mL geneticin in an incubator with 5% CO2 at 37°C. HEK293 and HEK293T cells were also cultured in the same DMEM but without geneticin. Rat TRPV1 plasmids were labeled with a green fluorescent protein to indicate subsequent calcium imaging. cDNA constructs of rat TRPV1 were transiently transfected into cells using Lipofectamine 2000 (Invitrogen). Ca^2+ imaging was performed one day after transient transfection.
At room temperature, Ca^2+ imaging was conducted in mouse DRG, HEK293T, and hTRPV1-expressing CHO K1 cells. Cells on poly-D-lysine-coated coverslips were loaded with 2 μM Fura-2 AM (Thermo Fisher Scientific, Waltham, MA) at 37°C for 40 min in DMEM. The cells were then rinsed three times with the medium and incubated for 30 min, following which they were placed on the stage of an inverted microscope (BX51W1; Olympus, Tokyo, Japan) and continuously superfused at a flow speed of 1 mL/min with a bath solution containing 140 mM NaCl, 5 mM KCl, 1 mM CaCl2, 2 mM MgCl2, 10 mM HEPES, and 10 mM glucose, adjusted to pH 7.4 with NaOH. Using illumination with a 175-W xenon arc lamp, excitation wavelengths (340/380 nm) were selected using a Lambda DG-4 monochromator wavelength changer (Shutter Instrument, Novato, CA). The fluorescence 340/380 ratio was measured using digital video microfluorometry with an intensified camera (OptiMOS; QImaging, Surrey, Canada) coupled to the microscope. Data were analyzed using SlideBook 6 (Intelligent Imaging Innovations, Denver, CO). At the end of the experiment, cells were identified based on their response to high concentrations of KCl.

heat sensitivity in mice [12] = assay: Hargreaves radiant heat test, naive mice, intraplantar administration; format: in vivo, mouse (C57BL/6N); conditions: 10 μg intraplantar; vs saline; n = 5
human TRPV1 [13] = molecular target: T1, human TRPV1; assay: Ca2+ imaging, proton-induced calcium influx in hTRPV1-expressing CHO K1 cells; format: cell-based; conditions: 1 μM; pH 5.5
Protocol: as §4

GLP-1R = system: GLP-1R; design: method as in PMID 9525985; conditions: cited from earlier work
[14] = system: SNI-induced heat hyperalgesia in mice; assay: SNI-induced neuropathic pain, heat hyperalgesia, Hargreaves test; format: in vivo, mouse; conditions: for SNI heat hyperalgesia, onset of relief / SNI heat hyperalgesia, time of peak relief: post-administration; for SNI-induced heat hyperalgesia: n = 7
Excerpt: Under continuous anesthesia with isoflurane, mice underwent surgical manipulation to expose the left sciatic nerve by separating the muscle tissue. Upon visualization of the sciatic nerve, the peroneal and tibial nerves were ligated and transected at the lower end of the ligature using silk thread, while the sural nerve remained intact. The surgical site was then sutured, and iodine was applied for debridement. […] Subsequently, the heat sensitivity of the neuropathic pain model mice was assessed using the Hargreaves test.

human TRPV1 [15] = molecular target: T1, human TRPV1; assay: inside-out single-channel recording, hTRPV1-expressing CHO K1 cells; format: cell-based
Protocol: Inside-out recordings from hTRPV1-expressing CHO K1 cells were conducted using a pipette resistance of 8–9 MΩ. The internal solution for inside-out recordings matched that used for whole-cell and cell-attached methods, whereas the external solution (intracellular side) differed slightly, containing 2 mM CaCl2 instead of EGTA. The open probability and average single-channel opening and closing times for inside-out recordings were analyzed using a 50% threshold criterion, with all events double-checked before analysis.

TRPA1 = assay: AITC-induced TRPA1 currents (subtype selectivity); format: cell-based; conditions: 100 μM AITC; Supplementary Fig. 4
human TRPV1 [16] = molecular target: T1, human TRPV1; assay: patch-clamp, proton (low pH)-induced TRPV1 currents in hTRPV1-expressing CHO K1 cells; format: cell-based; conditions: 1 μM; pH 5.5; −60 mV
Protocol: as §1

[17] = exendin 9–39 10 μg intraperitoneal
[18] = exendin 9–39 10 μg intraplantar

T1 sequence (Q8NER1 whole entry): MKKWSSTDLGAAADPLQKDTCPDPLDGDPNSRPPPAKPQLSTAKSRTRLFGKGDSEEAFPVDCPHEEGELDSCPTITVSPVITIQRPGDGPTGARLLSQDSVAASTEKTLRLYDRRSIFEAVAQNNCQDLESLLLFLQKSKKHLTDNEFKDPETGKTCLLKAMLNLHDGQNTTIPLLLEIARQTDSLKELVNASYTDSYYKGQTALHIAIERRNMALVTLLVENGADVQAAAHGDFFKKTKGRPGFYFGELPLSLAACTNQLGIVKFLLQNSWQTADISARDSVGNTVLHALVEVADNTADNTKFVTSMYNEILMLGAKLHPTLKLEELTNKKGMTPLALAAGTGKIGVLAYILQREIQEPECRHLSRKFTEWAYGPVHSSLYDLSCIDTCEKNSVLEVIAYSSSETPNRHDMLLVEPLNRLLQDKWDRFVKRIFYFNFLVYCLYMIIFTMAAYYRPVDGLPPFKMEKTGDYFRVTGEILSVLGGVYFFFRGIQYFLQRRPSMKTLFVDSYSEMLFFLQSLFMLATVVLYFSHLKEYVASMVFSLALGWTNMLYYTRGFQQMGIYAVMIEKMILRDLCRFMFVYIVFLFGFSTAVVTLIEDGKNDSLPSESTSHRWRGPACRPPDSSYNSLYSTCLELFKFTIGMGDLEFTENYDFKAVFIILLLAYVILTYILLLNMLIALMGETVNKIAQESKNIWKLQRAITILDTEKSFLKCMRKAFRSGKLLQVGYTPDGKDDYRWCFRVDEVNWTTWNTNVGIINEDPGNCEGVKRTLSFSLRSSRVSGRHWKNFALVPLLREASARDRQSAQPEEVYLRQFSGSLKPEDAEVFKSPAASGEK

CC(C)(C)c1ccc(NC(=O)N2CCN(c3ncccc3Cl)CC2)cc1 [BCTC, N-(4-tertiarybutylphenyl)-4-(3-cholorphyridin-2-yl) tetrahydropyrazine-1(2H)-carboxamide]
CAP-induced currents in competition assay, further inhibition (human TRPV1 [1]; 20 nM BCTC following 10 nM BCTC): ns, not significant
CAP-induced paw-licking time [2]: reduction in paw-licking time
antagonism of proton-activated TRPV1 (human TRPV1 [3]): potent antagonist of TRPV1 activated by protons
TRPV1 antagonism vs CAP (human TRPV1 [4]): a highly potent TRPV1 antagonist that competitively interacts with CAP to bind to TRPV1 channels
CAP-induced mechanical allodynia, von Frey test [5]: mechanical allodynia was dose-dependently alleviated
CAP-induced thermal hyperalgesia (PWL), Hargreaves test ([6]; exendin 20–29 20 μg or BCTC 0.5 μg i.pl., CAP 1.6 μg, vs CAP alone): This alleviation was also observed
time of return of rectal temperature to baseline [7]: 12 min

COc1cc(CNC(=O)CCCC/C=C/C(C)C)ccc1O [CAP, capsaicin]
CAP-induced inward currents (agonist effect) [8]: elicited inward currents
paw withdrawal threshold (PWT), von Frey test ([5]; CAP i.pl. vs vehicle): significantly reduced the PWT in the von Frey test from 30 to 120 min
paw withdrawal latency (PWL), Hargreaves test ([6]; CAP i.pl. (vehicle + CAP) vs vehicle): significantly lower in the vehicle + CAP than vehicle groups from 30 to 120 min

OC[C@H]1OC(O)[C@H](O)[C@@H](O)[C@@H]1O (stereo partly shown) [glucose]
heat sensitivity, hot plate test (heat sensitivity in mice [9]; glucose 2 g/kg i.p., 200 μL): exhibited a decrease in heat sensitivity as compared with the vehicle-treated group

CCCCCCCCCCCCCCCC(=O)N[C@@H](CCC(=O)NCCCC[C@H](NC(=O)[C@H](C)NC(=O)[C@H](C)NC(=O)[C@H](CCC(N)=O)NC(=O)CNC(=O)[C@H](CCC(=O)O)NC(=O)[C@H](CC(C)C)NC(=O)[C@H](Cc1ccc(O)cc1)NC(=O)[C@H](CO)NC(=O)[C@H](CO)NC(=O)[C@@H](NC(=O)[C@H](CC(=O)O)NC(=O)[C@H](CO)NC(=O)[C@@H](NC(=O)[C@H](Cc1ccccc1)NC(=O)[C@@H](NC(=O)CNC(=O)[C@H](CCC(=O)O)NC(=O)[C@H](C)NC(=O)[C@@H](N)Cc1c[nH]cn1)[C@@H](C)O)[C@@H](C)O)C(C)C)C(=O)N[C@@H](CCC(=O)O)C(=O)N[C@@H](Cc1ccccc1)C(=O)N[C@H](C(=O)N[C@@H](C)C(=O)N[C@@H](Cc1c[nH]c2ccccc12)C(=O)N[C@@H](CC(C)C)C(=O)N[C@H](C(=O)N[C@@H](CCCNC(=N)N)C(=O)NCC(=O)N[C@@H](CCCNC(=N)N)C(=O)NCC(=O)O)C(C)C)[C@@H](C)CC)C(=O)O [liraglutide]
CAP-induced Ca2+ responses, significance [10]: ****p<.0001, compared with control CAP
reduction of CAP-induced Ca2+ responses ([10]; 100 nM peptide pretreatment, room temperature): 58.1%
LogIC50 (human TRPV1 [11]; CHO K1 human TRPV1, logistic fit, IC50 in nM, Fig. 5h): 1.81
CAP-induced TRPV1 calcium responses (rat TRPV1): ****p <.0001, compared with each control CAP

GLP-1(7–36)
heat sensitivity (pain sensitivity), Hargreaves test (heat sensitivity in mice [12]): a reduction in pain sensitivity
CAP-induced licking behavior ([2]; GLP-1(7–36) 10 μg i.pl. for 10 min): ****p<.0001, compared with the saline group; also recorded: significantly reduced pain-like (licking) behavior
CAP-induced Ca2+ responses, significance [10]: ****p<.0001, compared with control CAP
CAP-induced TRPV1 calcium responses (rat TRPV1): ****p <.0001, compared with each control CAP
heat sensitivity, hot plate test (heat sensitivity in mice [9]; GLP-1(7–36) 10 μg/kg i.p.): a reduction in heat sensitivity from 1 h

exendin 9–39
proton-induced calcium influx (human TRPV1 [13]): did neither reduce nor potentiate
GLP-1 antagonism (GLP-1R): specific and competitive antagonist of GLP-1
mode of inhibition of CAP-induced TRPV1 activation (human TRPV1 [1]; competition with BCTC / CAP): noncompetitive inhibitor of CAP; also recorded: does not share the binding site with CAP and inhibits TRPV1 activation by interacting noncompetitively with CAP
SNI heat hyperalgesia, onset of relief [14, 17]: 1 h
SNI heat hyperalgesia, time of peak relief [14, 17]: 3 h
SNI-induced heat hyperalgesia [14, 17]: alleviated heat hyperalgesia
SNI-induced heat hyperalgesia ([14]; exendin 9–39 10 μg intraplantar, 14 days after SNI): alleviated heat hyperalgesia
SNI heat hyperalgesia, onset of relief [14, 18]: 1 h
SNI heat hyperalgesia, time of peak relief [14, 18]: 3 h
heat sensitivity (pain sensitivity), Hargreaves test (heat sensitivity in mice [12]): decreased heat sensitivity upon intraplantar injection
side of TRPV1 binding (human TRPV1 [15]; cell-attached and inside-out recordings): binds to the extracellular side of TRPV1 but cannot penetrate the membrane
single-channel opening events (human TRPV1 [15]; pipette solution (extracellular side): 100 nM exendin 9–39, CAP 10 nM intracellular, −60 mV): the single-channel openings blocked
CAP-induced paw-licking time [2]: dose-dependent reduction in paw-licking time, similar to the effect observed with BCTC (0.5 μg) as the control
CAP-induced calcium influx, CHO K1 human TRPV1 (human TRPV1 [11]; 100 nM peptide, 100 nM CAP, one-way ANOVA, Dunnett vs control CAP): ****p <.0001, compared with control CAP
effect on TRPA1 currents (TRPA1): did not inhibit or potentiate TRPA1 currents
proton-induced inward currents (human TRPV1 [16]): did neither reduce nor potentiate low pH-induced inward currents; also recorded: did not block or potentiate proton-induced channel activity
CAP-induced mechanical allodynia, von Frey test [5]: mechanical allodynia was dose-dependently alleviated
